Source: PubChem BioAssay (NCI)
“And” between values parts separate entries of the source, which are not always exact repeats. Equal entries are not always repeated.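 Cells were grown in 96-well plates and exposed to each compound for 48 hours at five concentrations; endpoints were interpolated linearly between bracketing concentrations, or set to the highest concentration if not reached. GI50 marks 50% less growth. TGI denotes the concentration required for complete inhibition of growth.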

Key:
Assay in all cases: NCI-60 cell line screen, 48 h
CAKI-1 renal = tested on: CAKI-1 renal
HCC-2998 colon = tested on: HCC-2998 colon
HS 578T breast = tested on: HS 578T breast
IGROV1 ovarian = tested on: IGROV1 ovarian
M14 melanoma = tested on: M14 melanoma
OVCAR-4 ovarian = tested on: OVCAR-4 ovarian
OVCAR-8 ovarian = tested on: OVCAR-8 ovarian
SNB-19 CNS = tested on: SNB-19 CNS
UACC-257 melanoma = tested on: UACC-257 melanoma
NCI-H226 lung = tested on: NCI-H226 lung

Row | Structure (SMILES) | GI50 (CAKI-1 renal) | TGI (CAKI-1 renal) | GI50 (HCC-2998 colon) | TGI (HCC-2998 colon) | GI50 (HS 578T breast) | TGI (HS 578T breast) | GI50 (IGROV1 ovarian) | TGI (IGROV1 ovarian) | GI50 (M14 melanoma) | TGI (M14 melanoma) | GI50 (OVCAR-4 ovarian) | TGI (OVCAR-4 ovarian) | GI50 (OVCAR-8 ovarian) | TGI (OVCAR-8 ovarian) | GI50 (SNB-19 CNS) | TGI (SNB-19 CNS) | GI50 (UACC-257 melanoma) | TGI (UACC-257 melanoma) | TGI (NCI-H226 lung) | GI50 (NCI-H226 lung)
1 | CC(=O)NC1C(O[C@H]2C[C@H]3[C@@H]4CC=C5C[C@@H](O)CC[C@]5(C)[C@H]4CC[C@]3(C)[C@H]2[C@H](C)C(=O)CCC(C)C)OCC(O)C1O (stereo not given in full) | 1.53 µM | 6.75 µM | 6.46 µM | 14.6 µM | 0.88 µM | 4.09 µM | 3.37 µM | > 42.5 µM | 0.732 µM | 1.57 µM | 5.31 µM | 41 µM | 15.7 µM | > 42.5 µM | 3.31 µM | 11 µM | 1.4 µM | 3.55 µM |  | 
2 | Cn1c(=O)c2nc3sc4c(n3c2n(C)c1=O)C(=O)c1ccccc1C4=O |  | > 100 µM |  | > 100 µM |  | 51.5 µM |  | > 69 µM |  | > 100 µM |  | > 81.4 µM |  | > 74.2 µM |  | > 66 µM |  | > 100 µM | > 87.2 µM | 
3 | O=C(c1cccs1)c1c(C(F)(F)F)n([O-])c2cc(Cl)c(Cl)cc2[n+]1=O | 1.53 µM | 2.92 µM | 1.5 µM | 2.86 µM | 2.02 µM | 4.11 µM | 0.073 µM | 1.07 µM | 0.906 µM | 2.45 µM | 1.97 µM | 4.25 µM | 1.46 µM | 3.47 µM |  |  | 1.86 µM | 3.85 µM | 3.79 µM | 1.96 µM
4 | CSc1nc2nc(-c3ccccc3)c(C)c-2c2n1C(C)C(=O)N2 (stereo not given) | 53.6 µM | > 100 µM | 88.6 µM | > 100 µM | 77.5 µM | > 100 µM | 41.5 µM | > 100 µM | 38.6 µM | > 100 µM | 40.1 µM | > 100 µM | 45.7 µM | > 100 µM | 38.5 µM | > 100 µM | 51.3 µM | > 100 µM | > 100 µM | 35.7 µM
5 | Nc1nc(=S)c2ncn(C3OC(COP(=O)(O)O)C(O)C3O)c2[nH]1 (stereo not given) | 0.544 µM | > 100 µM | 3.29 µM | > 100 µM | 6.36 µM | > 100 µM | 5.23 µM | > 100 µM | 0.503 µM | 32.8 µM | 2.19 µM | > 100 µM | 0.715 µM | > 100 µM | > 100 µM | > 100 µM | 4.57 µM | > 100 µM | > 100 µM | 9.9 µM
6 | CC(C)Cc1ccc(C(C)/C=C2\CCC(CN(C)C)C2=O)cc1 (stereo not given) |  | 32.7 µM |  | 31.3 µM |  | 8.45 µM |  | 18 µM |  | 28.5 µM |  | 35.2 µM |  | 19 µM |  | 26.3 µM |  | 30 µM | 46.4 µM | 
7 | CC(=O)Oc1ccc(C2=Cc3ccc(OC(C)=O)cc3OC2C)cc1 (stereo not given) | 2.31 µM | 5.73 µM | 11.1 µM | 72 µM | 2.75 µM | 7.81 µM | 3.41 µM | 17 µM | 4.11 µM | 38.1 µM | 14.2 µM | 81.4 µM | 4.41 µM | > 100 µM | 14.7 µM | > 100 µM | 15 µM | 64.1 µM | 53.8 µM | 4.96 µM
8 | CC[C@H](C)[C@H](NC(=O)[C@H]1CCCCN1C)C(=O)N(C)[C@H](C[C@@H](OC(C)=O)c1nc(C(=O)NC23CC(C(=O)OC)(C2)C3)cs1)C(C)C | 0.00485 µM |  | 0.00299 µM and 0.00325 µM | > 32.5 µM | 0.000388 µM and 0.00325 µM | > 32.5 µM | 0.00132 µM and 0.00325 µM | > 32.5 µM | 0.00554 µM and 0.00325 µM | 0.00618 µM | 0.0424 µM and 0.0727 µM | > 32.5 µM | 0.00056 µM and 0.00325 µM | > 32.5 µM | 0.00105 µM and 0.00325 µM | > 32.5 µM |  |  | 9.18 µM | 0.133 µM
9 | C=C(CN1CCc2[nH]c3ccc(F)cc3c2C1)c1ccc(C(=O)Nc2ccccc2N)cc1 | 1.93 µM | 5.91 µM | 1.38 µM | 3.82 µM | 1.07 µM | 14.1 µM | 0.41 µM | 3.53 µM | 0.78 µM | 4.75 µM |  |  | 0.772 µM | 3.82 µM | 3.73 µM | 21.7 µM | 0.6 µM | 2.71 µM | 7.32 µM | 2.47 µM
10 | CCCCCC/C=C\CCCCCCCCC(=O)c1cccc(OC)c1OC |  | > 100 µM |  | > 100 µM |  | > 100 µM |  | > 100 µM |  | > 100 µM |  |  |  | > 100 µM |  | > 100 µM |  | > 100 µM | > 100 µM | 
